Experimental data published in US20230049952A1, “METHODS AND COMPOUNDS FOR RESTORING MUTANT P53 FUNCTION” (PMV Pharmaceuticals, Inc., priority 2020, published 2023).

Test system: p53 signaling pathway in MT373 tumors
Assay: MT373 syngeneic sarcoma model: mouse p53 signaling pathway profiling panel
Format: in vivo

## CCn1c(C#CCNc2ccccc2)cc2cc(CNC3CCN(C)CC3)ccc21 [Compound 1, 1-Anilino-3-{1-ethyl-5-[(1-methyl-4-piperidylamino)methyl]-1H-indol-2-yl}-2-propyne]
150 mg/kg BIDx1, 24 h
  Pcna fold increase or percent reduction vs vehicle control: 42.63 fold or %
  Pmaip1 fold increase or percent reduction vs vehicle control: 1.45 fold or %
  Ppm1d fold increase or percent reduction vs vehicle control: 1.49 fold or %
  Prc1 fold increase or percent reduction vs vehicle control: 54.87 fold or %
  Prkca fold increase or percent reduction vs vehicle control: 28.12 fold or %
  Pten fold increase or percent reduction vs vehicle control: 1.08 fold or %
  Pttg1 fold increase or percent reduction vs vehicle control: 1.11 fold or %
  Rb1 fold increase or percent reduction vs vehicle control: 1.48 fold or %
  Rela fold increase or percent reduction vs vehicle control: 14.73 fold or %
  Rprm fold increase or percent reduction vs vehicle control: 2.12 fold or %
  Serpinb5 fold increase or percent reduction vs vehicle control: 2.23 fold or %
  Sesn2 fold increase or percent reduction vs vehicle control: 2.45 fold or %
  Sfn fold increase or percent reduction vs vehicle control: 31.21 fold or %
  Sirt1 fold increase or percent reduction vs vehicle control: 15.06 fold or %
  Stat1 fold increase or percent reduction vs vehicle control: 1.51 fold or %
  Tnf fold increase or percent reduction vs vehicle control: 1.23 fold or %
  Traf1 fold increase or percent reduction vs vehicle control: 1.20 fold or %
  Trp53bp2 fold increase or percent reduction vs vehicle control: 12.94 fold or %
  Trp53 fold increase or percent reduction vs vehicle control: 27.25 fold or %
150 mg/kg BIDx1, 48 h
  Apex1 fold increase or percent reduction vs vehicle control: 31.42 fold or %
  Atm fold increase or percent reduction vs vehicle control: 26.33 fold or %
  Atr fold increase or percent reduction vs vehicle control: 16.47 fold or %
  Bag1 fold increase or percent reduction vs vehicle control: 42.01 fold or %
  Bax fold increase or percent reduction vs vehicle control: 30.76 fold or %
  Bbc3 fold increase or percent reduction vs vehicle control: 1.04 fold or %
  Bcl2 fold increase or percent reduction vs vehicle control: 23.30 fold or %
  Bid fold increase or percent reduction vs vehicle control: 1.01 fold or %
  Birc5 fold increase or percent reduction vs vehicle control: 66.42 fold or %
  Brca1 fold increase or percent reduction vs vehicle control: 60.55 fold or %
  Brca2 fold increase or percent reduction vs vehicle control: 41.49 fold or %
  Btg2 fold increase or percent reduction vs vehicle control: 1.05 fold or %
  Casp2 fold increase or percent reduction vs vehicle control: 15.74 fold or %
  Ccnb1 fold increase or percent reduction vs vehicle control: 73.80 fold or %
  Ccne1 fold increase or percent reduction vs vehicle control: 38.25 fold or %
  Ccng1 fold increase or percent reduction vs vehicle control: 1.45 fold or %
  Ccnh fold increase or percent reduction vs vehicle control: 16.38 fold or %
  Cdc25a fold increase or percent reduction vs vehicle control: 42.22 fold or %
  Cdk1 fold increase or percent reduction vs vehicle control: 69.40 fold or %
  Cdk4 fold increase or percent reduction vs vehicle control: 54.23 fold or %
  Cdkn1a fold increase or percent reduction vs vehicle control: 1.38 fold or %
  Cdkn2a fold increase or percent reduction vs vehicle control: 38.18 fold or %
  Chek1 fold increase or percent reduction vs vehicle control: 63.16 fold or %
  Cradd fold increase or percent reduction vs vehicle control: 24.24 fold or %
  Cul9 fold increase or percent reduction vs vehicle control: 1.03 fold or %
  Dapk1 fold increase or percent reduction vs vehicle control: 1.17 fold or %
  Dnmt1 fold increase or percent reduction vs vehicle control: 34.04 fold or %
  E2f1 fold increase or percent reduction vs vehicle control: 30.48 fold or %
  E2f3 fold increase or percent reduction vs vehicle control: 33.97 fold or %
  Egfr fold increase or percent reduction vs vehicle control: 41.85 fold or %
  Egr1 fold increase or percent reduction vs vehicle control: 46.38 fold or %
  Ep300 fold increase or percent reduction vs vehicle control: 1.10 fold or %
  Ercc1 fold increase or percent reduction vs vehicle control: 44.10 fold or %
  Esr1 fold increase or percent reduction vs vehicle control: 1.67 fold or %
  Fadd fold increase or percent reduction vs vehicle control: 9.11 fold or %
  Fas fold increase or percent reduction vs vehicle control: 10.02 fold or %
  Fasl fold increase or percent reduction vs vehicle control: 1.18 fold or %
  Foxo3 fold increase or percent reduction vs vehicle control: 7.35 fold or %
  Gadd45a fold increase or percent reduction vs vehicle control: 42.12 fold or %
  Hif1a fold increase or percent reduction vs vehicle control: 2.87 fold or %
  Il6 fold increase or percent reduction vs vehicle control: 79.27 fold or %
  Jun fold increase or percent reduction vs vehicle control: 47.43 fold or %
  Kras fold increase or percent reduction vs vehicle control: 1.18 fold or %
  Lig4 fold increase or percent reduction vs vehicle control: 1.12 fold or %
  Mdm2 fold increase or percent reduction vs vehicle control: 1.03 fold or %
  Mdm4 fold increase or percent reduction vs vehicle control: 1.28 fold or %
  Mel1 fold increase or percent reduction vs vehicle control: 6.76 fold or %
  Mlh1 fold increase or percent reduction vs vehicle control: 19.02 fold or %
  Msh2 fold increase or percent reduction vs vehicle control: 29.32 fold or %
  Myod1 fold increase or percent reduction vs vehicle control: 1.51 fold or %
  Nf1 fold increase or percent reduction vs vehicle control: 9.92 fold or %
  Nfkb1 fold increase or percent reduction vs vehicle control: 4.37 fold or %
  Pcna fold increase or percent reduction vs vehicle control: 58.04 fold or %
  Pmaip1 fold increase or percent reduction vs vehicle control: 1.17 fold or %
  Ppm1d fold increase or percent reduction vs vehicle control: 2.87 fold or %
  Prc1 fold increase or percent reduction vs vehicle control: 59.70 fold or %
  Prkca fold increase or percent reduction vs vehicle control: 22.18 fold or %
  Pten fold increase or percent reduction vs vehicle control: 1.08 fold or %
  Pttg1 fold increase or percent reduction vs vehicle control: 0.69 fold or %
  Rb1 fold increase or percent reduction vs vehicle control: 1.43 fold or %
  Rela fold increase or percent reduction vs vehicle control: 9.46 fold or %
  Rprm fold increase or percent reduction vs vehicle control: 1.00 fold or %
  Serpinb5 fold increase or percent reduction vs vehicle control: 3.17 fold or %
  Sesn2 fold increase or percent reduction vs vehicle control: 1.21 fold or %
  Sfn fold increase or percent reduction vs vehicle control: 13.65 fold or %
